According to PubChem BioAssay (NCI):
Several values for one entry are separate records, joined by “and”; a condition that tells them apart may be missing. Equal entries are not always repeated.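 Assay format: 96-well plates, 48-hour exposure. Abbreviation: GI50, concentration required for 50% inhibition of growth. TGI: concentration producing complete growth inhibition.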

Tests used:
Test in all cases: NCI anticancer screen, dose series, 48 h
COLO 205 colon = test system: COLO 205 colon
LOX IMVI melanoma = test system: LOX IMVI melanoma
UACC-257 melanoma = test system: UACC-257 melanoma
SF-268 CNS = test system: SF-268 CNS
SF-539 CNS = test system: SF-539 CNS
M14 melanoma = test system: M14 melanoma
EKVX NSCLC = test system: EKVX NSCLC
KM12 colon = test system: KM12 colon
IGROV1 ovarian = test system: IGROV1 ovarian
RXF 393 renal = test system: RXF 393 renal

SMILES	TGI (COLO 205 colon) [µM]	TGI (LOX IMVI melanoma) [µM]	TGI (UACC-257 melanoma) [µM]	TGI (SF-268 CNS) [µM]	TGI (SF-539 CNS) [µM]	TGI (M14 melanoma) [µM]	TGI (EKVX NSCLC) [µM]	TGI (KM12 colon) [µM]	TGI (IGROV1 ovarian) [µM]	GI50 (COLO 205 colon) [µM]	GI50 (LOX IMVI melanoma)	GI50 (UACC-257 melanoma) [µM]	GI50 (SF-268 CNS) [µM]	GI50 (SF-539 CNS) [µM]	GI50 (M14 melanoma)	GI50 (KM12 colon)	GI50 (RXF 393 renal) [µM]	TGI (RXF 393 renal) [µM]	GI50 (IGROV1 ovarian)	GI50 (EKVX NSCLC) [µM]
CC(=O)Nc1ccc2nncnc2c1	> 100	> 100	> 100	> 100	> 100	> 100	> 100	> 100	> 100											
O=C1NC(=NCC(CO)c2ccccc2)S/C1=C\c1ccc2ncccc2c1 (stereo not given)	> 25	> 25	> 25	> 25	> 25	> 25		> 25	> 25	7.77	17.4 µM	> 25	> 16.9	11.2	> 25 µM	14.7 µM	> 20.3	> 25	19 µM	
C/C(CN1C(=O)c2ccccc2C1=O)=N\NS(=O)(=O)c1ccccc1	> 100	> 100	> 100	> 100	> 100	> 100	> 100	> 100	> 100											
O=C1NC(=NCc2cccs2)SC1Cc1ccc2ncccc2c1 (stereo not given)	> 25	> 25	> 25	> 25	> 25	> 25		> 25	> 25	10.2	19.2 µM	15.5	> 23	10.3	11 µM	15.6 µM	> 19.3	> 25	> 16.5 µM	
CN(C)CCNC(=O)c1cccc2nc3ccc4ccccc4c3nc12	0.206	0.228	0.531	0.675	0.271	1.14	0.468	0.876										0.198		
CSC1=Nc2c(c(C)c(-c3ccccc3)n2COC(CO)CO)C2=NC(=O)C(C)N12 (stereo not given)	> 100	> 100	> 100	> 100	> 100		> 100	> 100	> 100	> 100	> 100 µM	> 100	> 100	> 100		> 100 µM	> 100	> 100	26.5 µM	> 100
CC/C(=N\Nc1nc2ccccc2n1C)c1ccccn1	2.94	5.32	2.64	11.1	1.62		7.47	11.3	7.76	< 0.01	0.118 µM	0.0735	0.194	0.182		0.19 µM	0.193	1.41	0.0294 µM	0.0369
C/C(=N\NC(=O)CC(=O)Nc1ccc(C)cc1)c1cc2ccccc2oc1=O	> 100	> 100	> 100		> 100	> 100	> 100	> 100	> 100									> 100		
CCC(=O)C1=C(OC(C)=O)C2Cc3c(n(C)c4ccccc34)C(C1)N2C (stereo not given)	> 100	> 100	> 100	47.9	59.2	> 100	> 100	> 100	> 100											
C/C(=N/O)C1CC=C(S(=O)(=O)c2ccccc2)C1 (stereo not given)	> 100	> 100	> 100	> 100	> 100	> 100		> 100	> 100									> 100		
Cc1ccc2nc3c(Cl)cc(=O)cc-3sc2c1	36.3		46.6	68.1	11.5	60.5	39.1		38.1											
COc1cc(/C=C/C(=O)C(=Cc2ccc(F)c(F)c2)C(=O)/C=C/c2ccc(O)c(OC)c2)ccc1O	4.74	4.48	4.37	12.5	13.6		18.3	3.19	67.9	2.26	1.95 µM	1.78	2.74	3.26		1.64 µM	1.74	3.2	3.82 µM	4.61
Cn1cc(-c2csc(-c3c[nH]c4ncccc34)n2)c2cc(Br)cnc21		> 100		> 100	> 100	> 100	> 100	> 100	> 100		4.26 µM		6.01	27.7	4.06 µM	5.7 µM	2.05	8.63	2.21 µM	1.27
N/C(=N\O)c1ncc(-c2ccc(C(F)(F)F)cc2)c(NC2CCCCCC2)n1	10.6	10.8	13.2	15.7	12.3	13.9		13.1	10.7	3.44	8.76 µM and 2.85 µM	3.23	3.64	3.39	9.68 µM and 3.24 µM	6.51 µM and 3.13 µM	2.74	11.6	6.72 µM and 2.26 µM	
COc1ccc(/C=C2\N=C(c3ccccc3)OC2=O)c(OCc2ccccc2)c1	> 100	> 100		> 100	46.6	> 100	> 100	> 100	64.4											
CC(=O)CC(=O)CCCC(=O)Nc1ccc(Cl)cc1C	> 100	> 100	> 100	> 100	> 100	> 100	> 100	> 100	> 100											
Cc1cc2c3ccccc3n(C)c2c2c1C(=O)c1ccccc1C2=O	56.1		43.3	> 100	> 100	40.9	> 100	> 100	54.3											
